Legend:
[1] = system: U118 human glioblastoma cells; test: MTT cytotoxicity assay, U118; assay type: cell-based; details: 48 h incubation, 3 independent experiments, read-out: IC50 (mean ± SE)
Protocol: (§1) Human brain tumor cells lines U87 MG (Cat.# HTB-14), U118 MG (Cat. # HTB-15), U138 (Cat # HTB-16), U373 MG (CAT. # HTB-17), and T98G (Cat. # CRL-1690) and breast cancer cell lines BT-20 (Cat # HTB-19), MDA-MB-231 (Cat # HTB-26), MDA-MB-361 (Cat # HTB-27), and MCF-7 (Cat # HTB-22) were obtained from American Type Culture Collection (ATCC, Rockville, Md.) and maintained as continuous cell lines in Dulbecco's modified Eagles's medium (U87, U118, U138, U373, T98 and BT-20) or Leibovitz's L-15 medium (MDA-MB-231 and MDA-MB-361). All media were supplemented with 10% fetal calf serum (FCS), 4 mM glutamine, 100 U/ml penicillin G and […] streptomycin sulfate. All tissue culture reagents were obtained from Life Technologies Inc. (GIBCO-BRL, Gaithersburg, Md.).
(§2) The cytotoxicity of [VO(SO4)(Me2-Phen)2] against human cancer cell lines was analyzed using the MTT (3-[4,5-dimethylthiazol-2-yl]-2,5-diphenyl tetrazolium bromide) assay (Boehringer Mannheim Corp., Indianapolis, Ind.) as described previously (Narla et al., Clin Cancer Res., 4: 1405-1414, 1998). […] The absorbance at 540 nm (a reference wavelength of 690 nm was used) of the solution in each well was measured using a microplate reader (Labsystems). The percent survival and the IC50 values were calculated using Graphpad Prism v2.0 (Graphpad Software, Inc., San Diego, Calif.) as described previously (Narla et al., Supra). […]

[2] = system: BT-20 breast cancer cells; test: MTT cytotoxicity assay, BT-20; assay type: cell-based, human; details: BT-20 cells, 48 h incubation, 3 independent experiments, read-out: IC50 (mean ± SE)
Protocol: as §1, §2

[3] = system: MDA-MB-231 breast cancer cells; test: In situ detection of apoptosis (TdT-mediated dUTP nick-end labeling), MDA-MB-231; assay type: cell-based, human; details: MDA-MB-231 cells, dUTP-FITC labeling; read-out: apoptotic EC50
Protocol: Apoptosis was detected using an in situ cell death detection kit (Boehringer Mannheim Corp., Indianapolis, Ind.) as described previously (Albini et al., J. Cell Biol., 105: 1867-1872, 1987; Huang et al., J Biol Chem., 272: 2927-2935, 1997). Cells were incubated with [VO(SO4)(Me2-Phen)2] for 48 hours at 37° C., fixed, permeabilized, incubated with the reaction mixture containing terminal deoxynucleotidyl transferase (TdT) and fluorescein isothiocyanate (FITC)-conjugated dUTP and counterstained with propidium iodide. Cells were transferred to slides and viewed with confocal laser scanning microscope (Bio-Rad MRC 1024) mounted on a Nikon Eclipse E800 series upright microscope as previously reported (Narla et al., Supra).
Administration of [VO(SO4)(Me2-Phen)2] to cells induced apoptotic or programmed cell death as determined using the TdT-mediated dUTP nick-end labeling of exposed 3′-OH termini of DNA with dUTP-FITC.

[4] = system: intracranial U87 glioblastoma; test: Nude mouse model of intracranial glioblastoma; assay type: in vivo, NCr nude mice
Source text: FIG. 2 illustrates the in vivo antitumor activity of [VO(SO4)(Me2-Phen)2] against intracranial U87 glioblastoma in nude mice. A representative survival curve of [VO(SO4)(Me2-Phen)2]-treated (n=8) and control (n=9) mice is shown.
The animal protocols used in this study were approved by the Parker Hughes Institute Institutional Animal Care and Use Committee (IACUC). Female CB.17 severe combined immuno-deficient (SCID) and NCr nude mice were obtained from Taconic (Germantown, N.Y.) and housed in a specific pathogen-free room located in a secure indoor facility with controlled temperature, humidity, and noise levels. Mice were housed in microisolater cages and fed with autoclaved rodent chow. Water was also autoclaved and supplemented with trimethoprim/sulfomethoxazol 3 days/week.
Nude mice were anesthetized with Avertin (2,2,2-tribromoethanol in tert-amyl alcohol; Aldrich Chemical Co., Milwaukee, Wis.) at a dose of 0.5 mg/g under aseptic conditions in a laminar flow hood. A small hole was drilled through the skull 2 mm to the right of the midline and 2 mm posterior to the bregma. U87 glioblastoma cells (4×10^5 cells in 10 μl of PBS) were intracranially implanted into the right side of the cerebral hemisphere of the mice using a Hamilton syringe fitted to a stereotaxic apparatus with a mouse adaptor (David Kopf Instruments, Tujunga, Calif.) as described earlier (34). Twenty-four hours after inoculation, mice were treated intraperitoneally with [VO(SO4)(Me2-Phen)2] (10 mg/kg/day, n=10) or vehicle (5% DMSO in PBS, n=11) for ten consecutive days. […] The grains were then fixed in formalin, processed for histopathology and the tumor volumes from histological sections were measured as described earlier (Haung et al., J. Biol Chem, 272; 2927-2935, 1997). the remaining mice were monitored twice a day for survival.
Following intracranial implantation of 4×10^5 U87 glioblastoma cells (in 10 μl of PBS) into the right cerebral hemispheres of NCr […] mice [VO(SO4)(Me2-Phen)2] […] The mice wee monitored twice a day for health status. […]

Compound: Cc1ccnc2c1ccc1c(C)ccnc12.Cc1ccnc2c1ccc1c(C)ccnc12.O=S(=O)([O-])[O-].[O]=[V+2] [[VO(SO4)(Me2-Phen)2], bis(4,7-dimethyl-1,10-phenanthroline) sulfatooxovanadium (IV)]
- IC50 [1]: 820 ± 100 nM
- IC50 [2]: 1600 ± 700 nM
- EC50 [3]: 2100 ± 400 nM
- mice remaining alive for >24 days ([4]; 10 mg/kg/day i.p. for ten consecutive days): over 60%
- median survival time ([4]; 10 mg/kg/day i.p. for ten consecutive days, control 19.6±0.6 days, P=0.0002): 24.4 ± 0.8 days
- average tumor volume, fold less than vehicle-treated control ([4]; 17 days after tumor cell inoculation, histological sections, two mice per group): approximately 2.9 fold

From patent US6878388B1, “Vanadium compounds for treating proliferative cell disorders” (Parker Hughes Institute, priority 2000, dated 2005)
